These results are taken from ChEMBL document CHEMBL1201862, “PubChem BioAssay data set” (2004).

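All cell lines were grown in 96-well plates and treated with compound for 48 hours. Here, GI50 denotes the concentration required for 50% inhibition of growth.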 Activity calls are given as the source filed them. Cut-off read from the data, not from the text of the source: active = GI50 up to about 1.1 µM and inactive = higher. Some results are limits rather than exact numbers.

Among the test systems are SW-620; KM12; OVCAR-3; K562; SF-539; BT-549; HCT-15; HCC 2998; HL-60; MDA-N; M14; NCI-H522; UO-31; NCI/ADR-RES; T47D; UACC-62; SK-MEL-2; OVCAR-4; SNB-75; MCF7.
Test in all cases: DTP human tumour cell line panel, 48 h

In the case of `CN(C)c1ccc(/C=C2\C[C@H]3[C@@H]4CCc5cc(OCCN6CCCC6)ccc5[C@H]4CC[C@]3(C)[C@H]2O)cc1`, the GI50 in the assay with SW-620 was 6.53 µM (inactive); with KM12, 5.71 µM (inactive); in the assay with OVCAR-3, 14.6 µM (inactive); in the assay with K562, 4.74 µM (inactive); in the assay on SF-539 it was 8.32 µM (inactive); with BT-549, 16 µM (inactive). Further, the GI50 in the assay with HCT-15 is 5.3 µM; in the assay with HCC 2998, 5.7 µM (inactive); in the assay on HL-60, 18.9 µM (inactive); in the assay on MDA-N, 14.8 µM (inactive); in the assay on M14 it was 4.27 µM (inactive); in the assay on NCI-H522, 4.26 µM (inactive). For the same molecule, the GI50 in the assay with UO-31 was 5.65 µM (inactive); in the assay on NCI/ADR-RES it was 19.3 µM (inactive); in the assay with T47D it was 23.3 µM (inactive); in the assay with UACC-62 it was 20 µM (inactive); in the assay with SK-MEL-2, 19.3 µM (inactive); in the assay on OVCAR-4 it was 16.3 µM (inactive). The values for the GI50 in the assay with SNB-75 and with MCF7 were 13.8 µM (inactive) and 7.35 µM (inactive), respectively.

For the molecule `COCOc1ccc(C2(O)Oc3cc(OCOC)ccc3C2C)c(O)c1` (stereo unspecified), the GI50 in the assay on SW-620 is 18.4 µM (inactive); with KM12, 16.7 µM (inactive); in the assay with OVCAR-3, 13.4 µM (inactive); in the assay with K562 it was 10.7 µM (inactive); with SF-539 it was 15.7 µM (inactive); in the assay on BT-549, 14.2 µM (inactive). The GI50 was 10.5 µM with HCT-15; 13.5 µM (inactive) with HCC 2998; 10.5 µM (inactive) in the assay with HL-60; 15.3 µM (inactive) with MDA-N; 16.6 µM (inactive) with M14; 18.2 µM (inactive) in the assay on NCI-H522. Moreover, the GI50 was 11.6 µM (inactive) in the assay on UO-31; 13.5 µM (inactive) with NCI/ADR-RES; 12.3 µM (inactive) in the assay with T47D; 12.9 µM (inactive) in the assay with UACC-62; 18.4 µM (inactive) in the assay with SK-MEL-2; 17.3 µM (inactive) with OVCAR-4. For the same molecule, the GI50 in the assay on SNB-75 was 15.3 µM (inactive); in the assay on MCF7, 14.3 µM (inactive).

With `CSC1C(=O)Nc2ccc3ccccc3c21` (stereo unspecified), the GI50 in the assay with SW-620 is 20.8 µM (inactive); in the assay with KM12 it was 18.6 µM (inactive); with SF-539, 17.4 µM (inactive); in the assay with BT-549, 23.8 µM (inactive); in the assay on HCT-15, 19.3 µM; in the assay on HCC 2998 it was > 100 µM (inactive). For the same molecule, the GI50 is 1.54 µM (inactive) in the assay on HL-60; 56.5 µM (inactive) in the assay on MDA-N; 23.1 µM (inactive) in the assay with M14; 2.54 µM (inactive) in the assay with NCI-H522; 16.1 µM (inactive) with UO-31; 29.6 µM (inactive) with NCI/ADR-RES. Also, the GI50 in the assay with T47D is 9.71 µM (inactive); in the assay with UACC-62, 17.5 µM (inactive); with SK-MEL-2, 27.1 µM (inactive); with OVCAR-4 it was 20.2 µM (inactive); with SNB-75 it was 22.8 µM (inactive); in the assay with MCF7 it was 38.1 µM (inactive).

For the molecule `COP(=O)(O)/C=C/C(NC(=O)C(Cl)(Cl)Cl)c1ccccc1` (stereo unspecified), the GI50 with SW-620 is > 100 µM (inactive); in the assay with KM12, > 100 µM (inactive); in the assay with OVCAR-3 it was > 100 µM (inactive); in the assay on K562, > 100 µM (inactive); in the assay on BT-549, > 100 µM (inactive); with HCT-15, above 100 µM. Moreover, the GI50 in the assay with HCC 2998, in the assay on HL-60, in the assay on MDA-N, in the assay on M14, with NCI-H522 and in the assay on UO-31 was > 100 µM (inactive) throughout. Moreover, the GI50 with NCI/ADR-RES, in the assay with T47D, in the assay on UACC-62, with SK-MEL-2, with OVCAR-4 and in the assay on SNB-75 was > 100 µM (inactive) in each case. Besides, the GI50 in the assay with MCF7 was > 100 µM (inactive).

Regarding `COCC[N+](CCNC(=O)c1cccc2c(N)c3cccc(C)c3nc12)(CCOC)Cc1ccc([N+](=O)[O-])cc1`, the GI50 with SW-620 was 21.1 µM (inactive); with KM12, 14.5 µM (inactive); in the assay with OVCAR-3, 16.7 µM (inactive); in the assay with SF-539, 17.3 µM (inactive); in the assay with BT-549, 21.8 µM (inactive); in the assay on HCT-15, 41.8 µM. The GI50 in the assay on HCC 2998 is 4.92 µM (inactive); in the assay on HL-60, 12.9 µM (inactive); in the assay on MDA-N, 31.1 µM (inactive); in the assay on M14, 29.6 µM (inactive); with NCI-H522 it was 5.37 µM (inactive); in the assay on UO-31, 63 µM (inactive). Further, the GI50 in the assay with NCI/ADR-RES is 88.3 µM (inactive); in the assay on T47D it was 18.1 µM (inactive); in the assay with UACC-62 it was 16 µM (inactive); with SK-MEL-2 it was 28.8 µM (inactive); with OVCAR-4, 43.3 µM (inactive); in the assay with SNB-75, 27 µM (inactive). The GI50 with MCF7 is 19.4 µM (inactive).

Take `O=C1CSC(c2ccccc2[N+](=O)[O-])N1c1ccc(-n2c(-c3ccccc3)nc3ccccc3c2=O)cc1` (stereo unspecified): the GI50 in the assay on SW-620 was 64.3 µM (inactive); in the assay on KM12 it was 48.5 µM (inactive); in the assay with OVCAR-3 it was 79.6 µM (inactive); with K562 it was 79.6 µM (inactive); in the assay on SF-539, 59 µM (inactive); with BT-549, 57.7 µM (inactive). For the same molecule, the GI50 is 42.3 µM in the assay with HCT-15; 46.5 µM (inactive) in the assay with HCC 2998; > 100 µM (inactive) in the assay on HL-60; > 100 µM (inactive) in the assay on MDA-N; 22.4 µM (inactive) with NCI-H522; 13.9 µM (inactive) in the assay with UO-31. Besides, the GI50 in the assay with NCI/ADR-RES is > 100 µM (inactive); with T47D it was 23.7 µM (inactive); with UACC-62, 33.4 µM (inactive); in the assay on SK-MEL-2, 55.8 µM (inactive); in the assay with OVCAR-4, 23.4 µM (inactive); with SNB-75 it was 19.5 µM (inactive). In addition, the GI50 with MCF7 was 32.4 µM (inactive).

As to `CCCCOC(=O)C1CC[C@H]2[C@@H]3CCc4cc(OC(=O)c5cccc6c(=O)c7ccccc7[nH]c56)ccc4[C@H]3CC[C@]12C` (stereo partly specified), the GI50 in the assay with SW-620 is 12.4 µM (inactive); with KM12, 9.71 µM (inactive); with OVCAR-3, 8.47 µM (inactive); in the assay on K562, 9.98 µM (inactive); with BT-549, 8.17 µM (inactive); in the assay on HCT-15, 6.98 µM. Moreover, the GI50 was 8.87 µM (inactive) in the assay on HCC 2998; 5.86 µM (inactive) with HL-60; 7.83 µM (inactive) with MDA-N; 11.3 µM (inactive) with M14; 9.64 µM (inactive) in the assay on NCI-H522; 8.17 µM (inactive) in the assay on UO-31. For the same molecule, the GI50 with NCI/ADR-RES was 11 µM (inactive); with T47D, 7.33 µM (inactive); with UACC-62, 6.84 µM (inactive); with SK-MEL-2 it was 9.91 µM (inactive); with OVCAR-4 it was 7.78 µM (inactive); in the assay on SNB-75, 10.4 µM (inactive). Also, in the assay on MCF7, the GI50 is 13.3 µM (inactive).

On to `Cc1c(C#N)c2nc3ccccc3n2c(=O)/c1=C/Nc1ccc(Cl)cc1`, for which the GI50 with SW-620 was > 100 µM (inactive); with KM12 it was 6.61 µM (inactive); with K562, 2.72 µM (inactive); in the assay with SF-539, 12.1 µM (inactive); in the assay with BT-549, 22.7 µM (inactive); with HCT-15 it was 8.65 µM. Also, the GI50 in the assay on HCC 2998 is > 100 µM (inactive); in the assay on HL-60, > 100 µM (inactive); in the assay on MDA-N, > 100 µM (inactive); in the assay on M14 it was 3.83 µM (inactive); in the assay on NCI-H522, 46.2 µM (inactive); in the assay on UO-31, 15.7 µM (inactive). The GI50 is 95.7 µM (inactive) with NCI/ADR-RES; 37.6 µM (inactive) in the assay on T47D; 15.8 µM (inactive) with UACC-62; 14.2 µM (inactive) in the assay on SK-MEL-2; > 100 µM (inactive) with OVCAR-4; 7.21 µM (inactive) with SNB-75. The GI50 in the assay on MCF7 was 55.2 µM (inactive).

For the molecule `COc1ccc(-c2nc(-c3cnccn3)n(C/C=C/c3ccccc3)n2)cc1`, the GI50 was > 100 µM (inactive) in the assay on SW-620; > 100 µM (inactive) in the assay on KM12; 40.4 µM (inactive) in the assay on OVCAR-3; > 100 µM (inactive) in the assay with K562; 26.5 µM (inactive) with SF-539; 40.7 µM (inactive) in the assay on BT-549. Also, the GI50 was above 100 µM with HCT-15; > 100 µM (inactive) in the assay with HCC 2998; > 100 µM (inactive) with HL-60; > 100 µM (inactive) in the assay with MDA-N; > 100 µM (inactive) with M14; 32.8 µM (inactive) with NCI-H522. For the same molecule, the GI50 is 49.2 µM (inactive) with UO-31; 83.4 µM (inactive) with NCI/ADR-RES; 48.2 µM (inactive) with T47D; 35.2 µM (inactive) in the assay with UACC-62; 21.3 µM (inactive) in the assay on OVCAR-4; 21.8 µM (inactive) in the assay with SNB-75. Also, the GI50 in the assay on MCF7 is > 100 µM (inactive).

Regarding `O=c1[nH]/c(=C/c2ccc(OCc3ccccc3)cn2)c(=O)[nH]/c1=C/c1ccc(F)cc1`, the GI50 in the assay on SW-620 is 0.416 µM (active); in the assay with KM12, 0.344 µM (active); in the assay with OVCAR-3 it was 0.207 µM (active); in the assay with K562 it was 0.154 µM (active); in the assay on SF-539, 0.923 µM (active); in the assay with BT-549 it was 4.97 µM (inactive). The GI50 was 0.157 µM in the assay on HCT-15; 1.42 µM (inactive) in the assay with HCC 2998; 0.217 µM (active) in the assay with HL-60; 0.069 µM (active) in the assay with MDA-N; 0.698 µM (active) in the assay with M14; 0.41 µM (active) in the assay with NCI-H522. Besides, the GI50 was 0.498 µM (active) with UO-31; 0.614 µM (active) with NCI/ADR-RES; 1.42 µM (inactive) with T47D; 0.938 µM (active) with UACC-62; 7.35 µM (inactive) with SK-MEL-2; 0.409 µM (active) in the assay on SNB-75. Besides, in the assay on MCF7, the GI50 was 0.301 µM (active).

In general, GI50 refers to the concentration at which growth is held to half of that of the control.
